Data taken from US20150315188A1, “COMPOUNDS AND METHODS FOR TREATMENT OF HYPERTENSION” (MEDIVATION TECHNOLOGIES, INC., priority 2012, published 2015).

Assays:
Parameters in all cases: purchased Milipore (Millipore)
[1] = target: T1, Human adrenergic α1B receptor (Homo sapiens, UniProt P35368); assay: Radioligand binding, adrenergic α1B (Protocol Group B); settings: Protocol Group B; for inhibition at 0.1 µM / Percentage inhibition of ligand binding, Adrenergic α1B (0.1 μM): 0.1 μM compound; for inhibition at 0.1 µM: read-out: Percentage inhibition of ligand binding, Adrenergic α1B (0.1 μM)
T1 sequence (P35368 1-520): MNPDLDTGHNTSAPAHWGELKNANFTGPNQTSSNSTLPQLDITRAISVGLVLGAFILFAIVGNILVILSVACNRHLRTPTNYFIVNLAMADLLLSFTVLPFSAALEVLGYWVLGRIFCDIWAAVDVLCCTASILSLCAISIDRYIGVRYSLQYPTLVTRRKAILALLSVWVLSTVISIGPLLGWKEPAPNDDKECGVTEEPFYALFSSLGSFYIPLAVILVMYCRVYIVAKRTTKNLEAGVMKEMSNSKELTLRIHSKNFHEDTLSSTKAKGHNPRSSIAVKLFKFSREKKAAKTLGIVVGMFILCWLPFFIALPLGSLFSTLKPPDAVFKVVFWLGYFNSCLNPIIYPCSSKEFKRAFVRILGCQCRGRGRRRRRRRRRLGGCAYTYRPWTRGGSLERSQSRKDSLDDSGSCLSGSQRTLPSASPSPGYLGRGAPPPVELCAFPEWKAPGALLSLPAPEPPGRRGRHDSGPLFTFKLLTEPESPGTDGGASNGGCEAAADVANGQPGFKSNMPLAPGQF
Description: To evaluate the activity of compounds in radioligand binding assays, Human adrenergic α1B receptor obtained from recombinant cell membrane from Milipore. Binding experiments were carried out in Tris-HCl buffer (50 mM Tris-HCl buffer, pH 7.4, 10 mM Mgcl2, 1 mM EDTA) as recommended by Milipore. Compounds were incubated with 0.3 nM [^3H]Prazosin for 60 min at 25° C. Non-specific binding was estimated in the presence of 10 μM prazosin. Receptor proteins were harvested on 0.33% PEI(poly-ethylenemine) soaked GFC filter mat, the specifically bound [^3H]Prazosin were counted to determine total binding. Compounds were screened at various concentrations, using 1% DMSO as vehicle. percent inhibition of specific binding was determined. Biochemical assay results are presented as the percent Inhibition of specific binding in Table B1b, or estimated Ki values in Table B1c.

[2] = target: T2, Human adrenergic α2B receptor (Homo sapiens, UniProt P18089); assay: Radioligand binding, adrenergic α2B (Protocol Group B); settings: Protocol Group B; for Percentage inhibition of ligand binding, Adrenergic α2B (10 nM): 0.01 µM; for inhibition at 0.03 µM / Percentage inhibition of ligand binding, Adrenergic α2B (30 nM): 30 nM compound; for inhibition at 0.03 µM: read-out: Percentage inhibition of ligand binding, Adrenergic α2B (30 nM); for Percentage inhibition of ligand binding, Adrenergic α2B (30 nM): 0.03 µM; for Percentage inhibition of ligand binding, Adrenergic α2B (0.1 μM) / inhibition at 0.1 µM: 0.1 μM compound; for inhibition at 0.1 µM: read-out: Percentage inhibition of ligand binding, Adrenergic α2B (0.1 μM)
T2 sequence (P18089 1-450): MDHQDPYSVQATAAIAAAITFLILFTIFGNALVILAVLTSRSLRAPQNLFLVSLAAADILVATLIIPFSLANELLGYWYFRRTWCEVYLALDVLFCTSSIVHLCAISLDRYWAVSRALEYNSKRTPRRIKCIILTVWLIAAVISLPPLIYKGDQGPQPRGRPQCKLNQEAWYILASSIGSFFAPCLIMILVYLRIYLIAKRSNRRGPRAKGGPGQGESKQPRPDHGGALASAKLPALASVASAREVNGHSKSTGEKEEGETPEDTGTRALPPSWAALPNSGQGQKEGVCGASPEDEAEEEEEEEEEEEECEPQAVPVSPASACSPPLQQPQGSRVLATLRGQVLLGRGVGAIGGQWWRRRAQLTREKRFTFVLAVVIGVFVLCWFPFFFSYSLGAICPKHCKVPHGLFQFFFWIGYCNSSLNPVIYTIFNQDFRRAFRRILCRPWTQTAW
Description: To evaluate the activity of compounds in radioligand binding assays, Human adrenergic α2B receptor obtained from recombinant cell membrane from Milipore. Binding experiments were carried out in Tris-HCl buffer (50 mM Tris-HCl buffer, pH 7.4, 5 mM Mgcl2, 1 mM Cacl2, 0.2% BSA) as recommended by Milipore. […] Non-specific binding was estimated in the presence of 10 μM Rauwolscine. […] Compounds were screened at various concentrations, using 1% DMSO as vehicle. Biochemical assay results are presented as the percent Inhibition of specific binding in Table B1b, or estimated Ki values in Table B1c.

[3] = target: T3, Human adrenergic α2A receptor (Homo sapiens, UniProt P08913); assay: Radioligand binding, adrenergic α2A (Protocol Group B); settings: Protocol Group B; for inhibition at 0.3 µM / Percentage inhibition of ligand binding, Adrenergic α2A (0.3 μM): 0.3 μM compound; for inhibition at 0.3 µM: read-out: Percentage inhibition of ligand binding, Adrenergic α2A (0.3 μM)
T3 sequence (P08913 1-465): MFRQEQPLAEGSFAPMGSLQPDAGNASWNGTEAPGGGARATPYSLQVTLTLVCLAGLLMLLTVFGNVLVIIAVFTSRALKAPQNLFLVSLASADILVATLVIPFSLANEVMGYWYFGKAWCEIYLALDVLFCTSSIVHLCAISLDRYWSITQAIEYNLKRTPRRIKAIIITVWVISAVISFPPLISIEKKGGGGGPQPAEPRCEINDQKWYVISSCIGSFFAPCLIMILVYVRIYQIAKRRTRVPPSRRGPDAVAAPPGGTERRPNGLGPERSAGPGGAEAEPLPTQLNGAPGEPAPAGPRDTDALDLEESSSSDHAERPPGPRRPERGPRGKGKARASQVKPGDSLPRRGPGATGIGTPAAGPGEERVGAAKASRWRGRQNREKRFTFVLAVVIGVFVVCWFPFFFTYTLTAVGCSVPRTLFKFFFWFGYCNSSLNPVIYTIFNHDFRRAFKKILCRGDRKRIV
Description: To evaluate the activity of compounds in radioligand binding assays, Human adrenergic α2A receptor obtained from recombinant cell membrane from Milipore. Binding experiments were carried out in Tris-HCl buffer (50 mM Tris-HCl buffer, pH 7.4, 5 mM Mgcl2, 1 mM Cacl2, 0.2% BSA) as recommended by Milipore. Compounds were incubated with 2 nM [^3H]MK-912 for 60 min at 25° C. Non-specific binding was estimated in the presence of 10 μM Rauwolscine. Receptor proteins were harvested on 0.33% PEI(poly-ethylenemine) soaked GFC filter mat, the specifically bound [^3H]MK-912 were counted to determine total binding. Compounds were screened at various concentrations, using 1% DMSO as vehicle. percent inhibition of specific binding was determined. Biochemical assay results are presented as the percent Inhibition of specific binding in Table B1b, or estimated Ki values in Table B1c.

SMILES	inhibition at 0.1 µM [1] [%]	Percentage inhibition of ligand binding, Adrenergic α1B (0.3 μM) ([1]; 0.3 μM compound) [%]	Percentage inhibition of ligand binding, Adrenergic α2B (10 nM) ([2]; 10 nM compound) [%]	inhibition at 0.03 µM [2] [%]	Percentage inhibition of ligand binding, Adrenergic α2A (0.1 μM) ([3]; 0.1 μM compound) [%]	inhibition at 0.3 µM [3] [%]	Percentage inhibition of ligand binding, Adrenergic α1B (0.1 μM) [1] [%]	Percentage inhibition of ligand binding, Adrenergic α2B (30 nM) [2] [%]	Percentage inhibition of ligand binding, Adrenergic α2B (0.1 μM) [2] [%]	Percentage inhibition of ligand binding, Adrenergic α2A (0.3 μM) [3] [%]	inhibition at 0.1 µM [2] [%]	inhibition at 0.3 µM ([1]; 0.3 μM compound, read-out: Percentage inhibition of ligand binding, Adrenergic α1B (0.3 μM)) [%]	inhibition at 0.01 µM ([2]; 10 nM compound, read-out: Percentage inhibition of ligand binding, Adrenergic α2B (10 nM)) [%]	inhibition at 0.1 µM ([3]; 0.1 μM compound, read-out: Percentage inhibition of ligand binding, Adrenergic α2A (0.1 μM)) [%]	Ki ([2]; estimated Ki, read-out: Ki α2B) [nM]	Ki ([3]; estimated Ki) [nM]
CC(O)(Cn1c2c(c3cc(Cl)cc(F)c31)CN1CCCC1C2)c1ccncc1 (single isomer, unassigned) [86a]	2	30	−2	23	−4	11										
Cc1ccc2c(c1)c1c(n2CC(C)(O)c2ccc(F)cc2)CC2CCC1N2C (single isomer, unassigned) [102d]		−5	−8		−8		−1	6	−8	4						
Cc1cc(F)c2c(c1)c1c(n2CC(C)(O)c2ccncc2)CC2CCCN2C1 (single isomer, unassigned) [62c]		15	47		5		10	52	65	21						
Cc1cc(F)cc2c3c(n(CC(C)(O)c4ccncc4)c12)CC1CCCN1C3 (single isomer, unassigned) [78b]		12	0		−7		2	7	22	8						
Cc1cc(Cl)c2c(c1)c1c(n2CC(C)(O)c2ccncc2)CCN2CCCC12 (single isomer, unassigned) [91d]		6	−1		−2		−19	24		11						
Cc1cc(F)c2c(c1)c1c(n2CC(C)(O)c2ccncc2)CC2CCCN2C1 (single isomer, unassigned) [62a]		43	21		14	30	22	45			72					
CN1CCc2c(c3cc(C(F)(F)F)ccc3n2CC(OC2CCCC2)c2ccncc2)C1 (single isomer, unassigned) [60b]		8	6		3		−9	28	59	12						
Cc1ccc2c(c1)c1c(n2CC(C)(O)c2cnccc2F)CCN(C)C1 (stereo not shown) [compound 40, 1-(2,8-dimethyl-3,4-dihydro-1H-pyrido[4,3-b]indol-5(2H)-yl)-2-(4-fluoropyridin-3-yl)propan-2-ol]	-6			44		19					74	3	19	5		
CC(O)(Cn1c2c(c3cc(Cl)cc(F)c31)C1CCCN1CC2)c1cccnc1 (single isomer, unassigned) [53d]		−8	−3		0		−16	−4	−5	5						
CC(O)(Cn1c2c(c3cc(C(F)(F)F)ccc31)C1CCCN1CC2)c1cccnc1 (single isomer, unassigned) [64b]		27	15		10		4	47	76	37						
Cc1cc(F)cc2c3c(n(CC(C)(O)c4cccnc4)c12)CCN1CCCC31 (single isomer, unassigned) [75c]		69	90		67		41	96		84					0.98	24.5
